The subject of assay [1] is Macrophage cell line. As to the kind of experiment: Effect on lipid mediator formation in human M2-like phenotype MDM cells by measuring MaR2 formation at 10 uM pre-incubated for 15 mins followed by SACM stimulation and measured after 90 mins by UPLC-MS/MS analysis relative to control. It is filed as functional. Conditions: time 105 min, 1.75 h.
Assay [2] has as its system Macrophage cell line. As to the kind of experiment: Effect on lipid mediator formation in human M1-like phenotype MDM cells by measuring LTB4 formation at 10 uM pre-incubated for 15 mins followed by SACM stimulation and measured after 90 mins by UPLC-MS/MS analysis (reference value: 1413 +/- 452 pg/ml). It is filed as functional. Particulars: time 105 min, 1.75 h.
In assay [3] the test system is Macrophage cell line. Description: Effect on lipid mediator formation in human M1-like phenotype MDM cells by measuring EPA formation at 10 uM pre-incubated for 15 mins followed by SACM stimulation and measured after 90 mins by UPLC-MS/MS analysis (reference value: 20261 +/- 1404 pg/ml). It is filed as functional. Conditions: time 105 min, 1.75 h.
The target of assay [4] is T1, Prostaglandin E synthase (Homo sapiens) (UniProt O14684).
T1 sequence (whole entry): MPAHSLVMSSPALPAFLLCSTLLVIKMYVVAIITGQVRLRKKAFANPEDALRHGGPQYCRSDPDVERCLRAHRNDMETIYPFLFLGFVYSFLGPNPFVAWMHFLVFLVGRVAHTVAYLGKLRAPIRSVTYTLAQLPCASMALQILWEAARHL
As to the kind of experiment: Inhibition of human mPGES-1 assessed as enzyme remaining activity at 10 uM relative to control.

Assay [5] deals with Macrophage cell line. Description: Effect on lipid mediator formation in human M2-like phenotype MDM cells by measuring 15-HETE formation at 10 uM pre-incubated for 15 mins followed by SACM stimulation and measured after 90 mins by UPLC-MS/MS analysis relative to control. It is filed as functional. Conditions: time 105 min, 1.75 h.
Assay [6] relates to Macrophage cell line. As to the kind of experiment: Effect on lipid mediator formation in human M1-like phenotype MDM cells by measuring PGF2alpha formation at 10 uM pre-incubated for 15 mins followed by SACM stimulation and measured after 90 mins by UPLC-MS/MS analysis relative to control. Conditions: time 105 min, 1.75 h. It is filed as functional.
In assay [7] the test system is Macrophage cell line. As to the kind of experiment: Effect on lipid mediator formation in human M1-like phenotype MDM cells by measuring TXB2 formation at 10 uM pre-incubated for 15 mins followed by SACM stimulation and measured after 90 mins by UPLC-MS/MS analysis relative to control. It is filed as functional. Conditions: time 105 min, 1.75 h.
The subject of assay [8] is Macrophage cell line. As to the kind of experiment: Effect on lipid mediator formation in human M1-like phenotype MDM cells by measuring 5-HETE formation at 10 uM pre-incubated for 15 mins followed by SACM stimulation and measured after 90 mins by UPLC-MS/MS analysis (reference value: 5357 +/- 1561 pg/ml). It is filed as functional. Conditions: time 105 min, 1.75 h.
Assay [9] deals with Macrophage cell line. Description: Effect on lipid mediator formation in human M2-like phenotype MDM cells by measuring 17-HDHA formation at 10 uM pre-incubated for 15 mins followed by SACM stimulation and measured after 90 mins by UPLC-MS/MS analysis relative to control. It is filed as functional. Conditions: time 105 min, 1.75 h.
Assay [10] has as its system Macrophage cell line. Description: Effect on lipid mediator formation in human M1-like phenotype MDM cells by measuring arachidonic acid formation at 10 uM pre-incubated for 15 mins followed by SACM stimulation and measured after 90 mins by UPLC-MS/MS analysis (reference value: 69242 +/- 58 pg/ml). It is filed as functional. Conditions: time 105 min, 1.75 h.
For assay [11], the system named is Macrophage cell line. Description: Effect on lipid mediator formation in human M2-like phenotype MDM cells by measuring 5S,6R-diHETE formation at 10 uM pre-incubated for 15 mins followed by SACM stimulation and measured after 90 mins by UPLC-MS/MS analysis (reference value: 206 +/- 47 pg/ml). It is filed as functional. Conditions: time 105 min, 1.75 h.
The subject of assay [12] is Macrophage cell line. Description: Effect on lipid mediator formation in human M1-like phenotype MDM cells by measuring 5,15-diHETE formation at 10 uM pre-incubated for 15 mins followed by SACM stimulation and measured after 90 mins by UPLC-MS/MS analysis (reference value: 122 +/- 58 pg/ml). It is filed as functional. Particulars: time 105 min, 1.75 h.
The subject of assay [13] is Macrophage cell line. As to the kind of experiment: Effect on lipid mediator formation in human M1-like phenotype MDM cells by measuring 14-HDHA formation at 10 uM pre-incubated for 15 mins followed by SACM stimulation and measured after 90 mins by UPLC-MS/MS analysis (reference value: 100 +/- 21 pg/ml). Particulars: time 105 min, 1.75 h. It is filed as functional.
Assay [14] deals with Macrophage cell line. Description: Effect on lipid mediator formation in human M2-like phenotype MDM cells by measuring 15-HEPE formation at 10 uM pre-incubated for 15 mins followed by SACM stimulation and measured after 90 mins by UPLC-MS/MS analysis (reference value: 1385 +/- 343 pg/ml). It is filed as functional. Particulars: time 105 min, 1.75 h.
Assay [15] has as its system Macrophage cell line. As to the kind of experiment: Effect on lipid mediator formation in human M2-like phenotype MDM cells by measuring MaR1 formation at 10 uM pre-incubated for 15 mins followed by SACM stimulation and measured after 90 mins by UPLC-MS/MS analysis relative to control. It is filed as functional. Conditions: time 105 min, 1.75 h.
The subject of assay [16] is Macrophage cell line. Description: Effect on lipid mediator formation in human M2-like phenotype MDM cells by measuring 4-HDHA formation at 10 uM pre-incubated for 15 mins followed by SACM stimulation and measured after 90 mins by UPLC-MS/MS analysis relative to control. It is filed as functional. Particulars: time 105 min, 1.75 h.
In assay [17] the target is T2, Polyunsaturated fatty acid 5-lipoxygenase (Homo sapiens) (UniProt P09917).
T2 sequence (whole entry): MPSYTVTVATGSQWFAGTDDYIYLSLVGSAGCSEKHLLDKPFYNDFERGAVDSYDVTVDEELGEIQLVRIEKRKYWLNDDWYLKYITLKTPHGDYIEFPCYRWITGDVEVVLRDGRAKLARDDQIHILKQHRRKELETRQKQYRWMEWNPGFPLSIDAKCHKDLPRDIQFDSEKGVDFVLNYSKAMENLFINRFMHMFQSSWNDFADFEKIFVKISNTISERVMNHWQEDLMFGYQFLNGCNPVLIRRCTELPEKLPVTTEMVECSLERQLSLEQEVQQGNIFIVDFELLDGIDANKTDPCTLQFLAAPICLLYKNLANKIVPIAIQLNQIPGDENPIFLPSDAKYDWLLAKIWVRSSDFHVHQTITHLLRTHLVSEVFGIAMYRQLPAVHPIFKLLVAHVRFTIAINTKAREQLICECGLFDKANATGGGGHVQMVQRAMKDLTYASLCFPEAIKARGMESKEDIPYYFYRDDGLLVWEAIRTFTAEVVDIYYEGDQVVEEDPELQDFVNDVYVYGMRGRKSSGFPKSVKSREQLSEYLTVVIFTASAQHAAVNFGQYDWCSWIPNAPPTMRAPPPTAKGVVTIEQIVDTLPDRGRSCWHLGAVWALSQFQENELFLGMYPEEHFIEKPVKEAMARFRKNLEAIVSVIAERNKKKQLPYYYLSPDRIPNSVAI
Description: Inhibition of 5-LOX in human Neutrophil at 10 uM preincubated with compound for 15 mins followed by A23187 addition measured after 10 mins by RP-HPLC analysis relative to control. It is filed as cell-based. Conditions: time 25.0 min.

Assay [18] has as its system Macrophage cell line. As to the kind of experiment: Effect on lipid mediator formation in human M2-like phenotype MDM cells by measuring LTB4 formation at 10 uM pre-incubated for 15 mins followed by SACM stimulation and measured after 90 mins by UPLC-MS/MS analysis (reference value: 509 +/- 30 pg/ml). It is filed as functional. Particulars: time 105 min, 1.75 h.
Assay [19] concerns Macrophage cell line. As to the kind of experiment: Effect on lipid mediator formation in human M1-like phenotype MDM cells by measuring 12-HETE formation at 10 uM pre-incubated for 15 mins followed by SACM stimulation and measured after 90 mins by UPLC-MS/MS analysis (reference value: 181 +/- 39 pg/ml). Particulars: time 105 min, 1.75 h. It is filed as functional.

Here are results for two compounds from ChEMBL document CHEMBL5528002, “Identification of selective 5-LOX and FLAP inhibitors as novel anti-inflammatory agents by ligand-based virtual screening” (Eur J Med Chem, 2024).

What is called inhibition is the change of the read-out against control, counted positive when it falls. For `Oc1ccc(CCC2CCC(c3ccc(O)cc3)CO2)cc1` (stereo not drawn), the Activity with Macrophage cell line [1] stood at 191%; with Macrophage cell line [2], 79 pg/mL; with Macrophage cell line [3], 22962 pg/mL; in assay [4] it was 80.3%; in the assay with Macrophage cell line [5] it was 144%; with Macrophage cell line [6], 70%. The Activity in the assay with Macrophage cell line [7] worked out at 94%; with Macrophage cell line [8] it was 695 pg/mL; with Macrophage cell line [9], 149%; with Macrophage cell line [10] it was 74786 pg/mL; with Macrophage cell line [11] it was 14 pg/mL; in the assay on Macrophage cell line [12] it was 37 pg/mL. For the same compound, the Activity with Macrophage cell line [13] was 88 pg/mL; in the assay on Macrophage cell line [14] it was 1937 pg/mL; in the assay on Macrophage cell line [15], 106%; with Macrophage cell line [16], 100%; in the assay with Macrophage cell line [18], 71 pg/mL; in the assay with Macrophage cell line [19], 158 pg/mL. Further, the inhibition in assay [17] is more than 50%.
As to `COc1ccc(C2=C/C(=C/c3ccc(O)cc3O)C(=O)O2)cc1`, the Activity with Macrophage cell line [1] amounted to 219%; in the assay on Macrophage cell line [2], 115 pg/mL; in the assay on Macrophage cell line [3], 27649 pg/mL; in assay [4], 89.3%; in the assay on Macrophage cell line [5], 136%; in the assay on Macrophage cell line [6], 89%. In addition, the Activity came out at 94% with Macrophage cell line [7]; 361 pg/mL with Macrophage cell line [8]; 173% with Macrophage cell line [9]; 80565 pg/mL in the assay on Macrophage cell line [10]; 8 pg/mL in the assay on Macrophage cell line [11]; 16 pg/mL with Macrophage cell line [12]. Also, the Activity was found to be 93 pg/mL in the assay on Macrophage cell line [13]; 2169 pg/mL in the assay with Macrophage cell line [14]; 189% in the assay on Macrophage cell line [15]; 85% in the assay with Macrophage cell line [16]; 22 pg/mL in the assay on Macrophage cell line [18]; 157 pg/mL with Macrophage cell line [19]. Further, in assay [17], the inhibition is more than 50%.
